According to PubChem BioAssay (NCI):
Several values for one entry are separate records, joined by “and”; a condition that tells them apart may be missing. Equal values may be shown once.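 Values below derive from 48-hour exposures of cells grown in 96-well plates, with endpoints linearly interpolated between the two concentrations bracketing the appropriate inhibition level. At the GI50, growth is halved. TGI: total growth inhibition.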

Key:
Experiment in all cases: growth of human tumour cells (NCI), 48 h
[1] = tested on: HOP-92 NSCLC
[2] = tested on: HCT-15 colon
[3] = tested on: SK-MEL-5 melanoma
[4] = tested on: 786-0 renal
[5] = tested on: NCI/ADR-RES ovarian
[6] = tested on: CAKI-1 renal
[7] = tested on: ACHN renal
[8] = tested on: MDA-MB-231 breast
[9] = tested on: MDA-MB-435
[10] = tested on: SNB-75 CNS

SMILES	TGI [1]	TGI [2]	TGI [3]	TGI [4]	TGI [5]	TGI [6]	TGI [7]	TGI [8]	TGI [9]	TGI [10]	GI50 [1]	GI50 [2]	GI50 [3]	GI50 [5]	GI50 [6]	GI50 [7]	GI50 [8]
c1ccc2c3c(c(N4CCNCC4)nc2c1)CCCC3	27.2 µM	29.3 µM	24.3 µM	27.7 µM	27.3 µM	21.9 µM	27.6 µM	27.4 µM	24.4 µM	27 µM	–	–	–	–	–	–	–
O=C(O)C(C1NCCS1)N1Cc2ccccc2C1 (configuration not stated)	> 100 µM	> 100 µM	> 100 µM	> 100 µM	> 100 µM	> 100 µM	> 100 µM	> 100 µM	> 100 µM	> 100 µM	–	–	–	–	–	–	–
COC(=O)/C=C1\C(=O)N(C(C)=O)c2ccccc21	16.8 µM	26.2 µM	27.8 µM	20.9 µM	62.8 µM	0.184 µM	20.1 µM	21.3 µM	32.2 µM	28.4 µM	–	–	–	–	–	–	–
CCCc1c(OC)c(O)c2c(=O)cc(OC)c3c4c(OC)cc(=O)c5c(O)c(OC)c(CCC)c(c1c23)c54	37.4 µM	22.9 µM	11.5 µM	13.5 µM	25.1 µM	16.5 µM	17 µM	8.54 µM	14.3 µM	23.6 µM	–	–	–	–	–	–	–
CC1CN=C(c2ccc3c(c2)Cc2cc(C4=NCC(C)N4)ccc2-3)N1 (configuration not stated)	> 100 µM	> 100 µM	> 100 µM	> 100 µM	> 100 µM	> 100 µM	> 100 µM	> 100 µM	63.9 µM	> 100 µM	–	–	–	–	–	–	–
CN(C)c1ccc(C(=C2C=CC(=[N+](C)C)C=C2)c2c(O)c(S(=O)(=O)[O-])cc3cc(S(=O)(=O)O)ccc23)cc1	> 100 µM	> 100 µM	> 100 µM	> 100 µM	> 100 µM	> 100 µM	> 100 µM	> 100 µM	> 100 µM	> 100 µM	–	–	–	–	–	–	–
Cc1cc(C)c2c(=O)n(CC(O)CN3CCN(c4ncccn4)CC3)sc2n1 (configuration not stated)	> 100 µM	35.4 µM	35.5 µM	27.6 µM	78 µM	39.5 µM	32.4 µM	31.3 µM	30.1 µM	28.4 µM	–	–	–	–	–	–	–
CC(C)=CCC[C@@H](C)c1c(O)c(O)c(C)c2nc3ccccc3nc12	5.11 µM	15 µM	10.6 µM	12.1 µM	7.48 µM	9.01 µM	5.64 µM	15 µM	18.3 µM	6.8 µM	–	–	–	–	–	–	–
C/C(=N\NC(=S)N/N=C(\C)c1ccccn1)c1ccccn1	> 100 µM	> 100 µM	> 100 µM	> 100 µM	27 µM	5.24 µM	5.7 µM	> 100 µM	> 100 µM	> 100 µM	–	–	–	–	–	–	–
COC(=O)c1ccc2c(c1)CCN2C(=O)c1cc2c(cc1Br)OCO2	50 µM and 40.3 µM	50 µM and 23.5 µM	5.5 µM and 14.1 µM	27.4 µM and > 100 µM	4.79 µM and 0.693 µM	50 µM and > 100 µM	49.3 µM and > 100 µM	50 µM and > 100 µM	0.994 µM	50 µM	0.432 µM	0.378 µM	0.581 µM	0.262 µM	0.953 µM	6.56 µM	2 µM
C=CCn1c(-c2ccc(N=NNc3ccc(-c4n[nH]c(=S)n4CC=C)cc3)cc2)n[nH]c1=S	39.1 µM	> 100 µM	3.79 µM	25.4 µM	61.4 µM	19.1 µM	5.09 µM	> 100 µM	> 100 µM	10.8 µM	–	–	–	–	–	–	–
CCOC(=O)C(C(N)=O)c1nc2cc([N+](=O)[O-])ccc2nc1/C=C(\O)c1ccc(C)cc1 (configuration not stated)	40.8 µM	> 82.2 µM	> 100 µM	28.7 µM	53 µM	> 100 µM	> 52.6 µM	46.7 µM	> 100 µM	42 µM	–	–	–	–	–	–	–
NCCCCN(CCCN)C(=O)OCc1ccccc1	> 100 µM	> 100 µM	> 100 µM	> 100 µM	> 100 µM	> 100 µM	> 100 µM	> 100 µM	> 100 µM	> 100 µM	–	–	–	–	–	–	–
CC(CCC(=O)O)(c1cc(Br)c(O)c(Br)c1)c1cc(Br)c(O)c(Br)c1	> 100 µM	> 100 µM	88.3 µM	> 100 µM	> 100 µM	> 100 µM	> 100 µM	> 100 µM	> 100 µM	> 100 µM	–	–	–	–	–	–	–
C(=C/c1ccc2nc(-c3ccc(/C=C/C=N/NC4=NCCCN4)cc3)cn2c1)/C=N/NC1=NCCCN1	> 100 µM	> 100 µM	> 100 µM	> 100 µM	51.7 µM	30.2 µM	> 100 µM	28.5 µM	> 100 µM	> 100 µM	–	–	–	–	–	–	–
NC1=CN2c3ccccc3N(CC(=O)N3CCOCC3)C2C=C1 (configuration not stated)	> 100 µM	> 100 µM	> 100 µM	> 100 µM	> 100 µM	> 100 µM	> 100 µM	> 100 µM	> 100 µM	> 100 µM	–	–	–	–	–	–	–
CS(=O)(=O)c1ccc(C2=C(c3ccccc3)C(=O)OC2)cc1	> 100 µM	> 100 µM	> 100 µM	> 100 µM	> 100 µM	> 100 µM	> 100 µM	> 100 µM	> 100 µM	> 100 µM	–	–	–	–	–	–	–
NC(=O)c1ncn(C2CCC(CP(=O)(O)O)C2)c1N (configuration not stated)	> 100 µM	> 100 µM	> 100 µM	> 100 µM	> 100 µM	> 100 µM	> 100 µM	> 100 µM	> 100 µM	> 100 µM	–	–	–	–	–	–	–
CCOC(=O)C(NC(=O)Nc1ccccc1)(Nc1cccc(Cl)c1)C(F)(F)F (configuration not stated)	94.6 µM	> 100 µM	> 100 µM	> 100 µM	> 100 µM	> 100 µM	> 100 µM	> 100 µM	> 100 µM	> 100 µM	–	–	–	–	–	–	–
Cc1cc(CC(O)(C(F)(F)F)C(F)(F)F)cc(CC(O)(C(F)(F)F)C(F)(F)F)n1	5.48 µM	12.6 µM	3.34 µM	6.66 µM	5.95 µM	> 100 µM	8.29 µM	6.84 µM	8.26 µM	6.58 µM	–	–	–	–	–	–	–
Nc1c2c(nc3ccccc13)-c1ccccc1CCC2	25.9 µM	27.3 µM	20.1 µM	27.1 µM	34.3 µM	32.5 µM	26.5 µM	27.8 µM	26.3 µM	24.2 µM	–	–	–	–	–	–	–
